Test results taken from ChEMBL document CHEMBL1201862, “PubChem BioAssay data set” (2004).
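Each compound was tested at five concentrations against cells in 96-well plates for 48 hours. GI50 marks 50% less growth.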 Active and inactive are the calls of the source. Rule as the data show it: active = GI50 up to about 1.1 µM and inactive = higher.

Assays:
Test in all cases: growth of human tumour cells (NCI), 48 h
SF-295 = tested on: SF-295
HOP-92 = tested on: HOP-92
CAKI-1 = tested on: CAKI-1
OVCAR-8 = tested on: OVCAR-8
UACC-62 = tested on: UACC-62
SN12C = tested on: SN12C
OVCAR-3 = tested on: OVCAR-3
SF-539 = tested on: SF-539
HCT-116 = tested on: HCT-116
SK-MEL-5 = tested on: SK-MEL-5
CCRF-CEM = tested on: CCRF-CEM
786-0 = tested on: 786-0
IGROV-1 = tested on: IGROV-1
A549 = tested on: A549
HL-60 = tested on: HL-60
UACC-257 = tested on: UACC-257

Measured: GI50

CCOC(=O)CN(Cc1ccccc1)Cc1c(C(=O)c2ccccc2)c2ccccc2n1C(=O)c1ccccc1
inactive: SF-295 > 100 µM | HOP-92 10.4 µM | CAKI-1 > 100 µM | OVCAR-8 > 100 µM | UACC-62 > 100 µM | SN12C > 100 µM | OVCAR-3 > 100 µM | SF-539 > 100 µM | HCT-116 32.7 µM | SK-MEL-5 96.8 µM | CCRF-CEM > 100 µM | 786-0 > 100 µM | IGROV-1 > 100 µM | A549 > 100 µM

Cc1cccc(C2SCc3nc4ccccc4n32)c1 (centres undefined)
inactive: SF-295 30.8 µM | HOP-92 14.7 µM | HL-60 6.78 µM | CAKI-1 31 µM | OVCAR-8 36.1 µM | UACC-62 27.8 µM | SN12C 19.5 µM | OVCAR-3 17.8 µM | SF-539 33.8 µM | HCT-116 17.7 µM | SK-MEL-5 14.3 µM | CCRF-CEM 31.8 µM | 786-0 25.1 µM | IGROV-1 24.5 µM | A549 37 µM

CC1OC(OC2C(OC(=O)[C@]34CCC(C)(C)CC3C3=CCC5[C@@]6(C)C[C@H](O)[C@H](OC7OC(CO)C(O)C(O)C7N)[C@@](C)(C(=O)O)C6CC[C@@]5(C)C3(C)CC4)OCC(O)C2O)C(O)C(O)C1OC1OCC(O)C(O)C1O (some centres undefined)
inactive: UACC-257 > 100 µM | SF-295 > 100 µM | HOP-92 > 100 µM | HL-60 > 100 µM | CAKI-1 > 100 µM | OVCAR-8 > 100 µM | UACC-62 > 100 µM | SN12C > 100 µM | OVCAR-3 > 100 µM | SF-539 > 100 µM | SK-MEL-5 > 100 µM | CCRF-CEM > 100 µM | 786-0 > 100 µM | IGROV-1 > 100 µM | A549 > 100 µM

CCC1(Cl)C(=O)NC(=O)N(C2CC(O)C(CO)O2)C1N=[N+]=[N-] (centres undefined)
inactive: UACC-257 > 100 µM | SF-295 > 100 µM | HOP-92 > 100 µM | HL-60 > 100 µM | CAKI-1 > 100 µM | OVCAR-8 > 100 µM | UACC-62 > 100 µM | SN12C > 100 µM | OVCAR-3 > 100 µM | SF-539 > 100 µM | SK-MEL-5 > 100 µM | CCRF-CEM > 100 µM | 786-0 > 100 µM | IGROV-1 > 100 µM | A549 > 100 µM

CC/C(CC(=O)CCC(=O)Nc1c(C)cccc1C)=N\NC(=O)NN
inactive: UACC-257 > 100 µM | SF-295 > 100 µM | HOP-92 > 100 µM | HL-60 > 100 µM | OVCAR-8 > 100 µM | UACC-62 > 100 µM | SN12C > 100 µM | OVCAR-3 > 100 µM | SF-539 > 100 µM | HCT-116 > 100 µM | SK-MEL-5 > 100 µM | CCRF-CEM > 100 µM | 786-0 > 100 µM | IGROV-1 > 100 µM | A549 > 100 µM
